Measured values published in patent US20240270741A1 (Cogent Biosciences, Inc., priority 2023, published 2024).

The molecules below were run against FGFR2 (Homo sapiens, UniProt P21802) (assay: FGFR wild type enzyme assay (HTRF KinEASE-TK), FGFR2). Settings: Enz FGFR2 (nM), FGFR2 wild type enzyme.
Sequence of FGFR2 (P21802 399-821 limits assumed): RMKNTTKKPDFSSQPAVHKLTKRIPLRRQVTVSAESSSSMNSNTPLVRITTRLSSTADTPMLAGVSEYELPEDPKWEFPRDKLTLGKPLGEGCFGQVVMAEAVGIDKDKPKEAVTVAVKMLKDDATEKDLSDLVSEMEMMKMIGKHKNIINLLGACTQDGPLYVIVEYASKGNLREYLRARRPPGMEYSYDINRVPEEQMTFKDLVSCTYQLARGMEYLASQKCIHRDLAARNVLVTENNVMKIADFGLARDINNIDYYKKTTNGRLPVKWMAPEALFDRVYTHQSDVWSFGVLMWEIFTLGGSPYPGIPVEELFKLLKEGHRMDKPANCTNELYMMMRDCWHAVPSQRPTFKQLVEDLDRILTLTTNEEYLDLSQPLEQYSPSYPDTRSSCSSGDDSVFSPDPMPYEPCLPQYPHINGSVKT
Molecule `Cc1c(-c2cc(Sc3ncccc3F)c3c(C#N)cnn3c2)cnn1[C@H]1CC[C@@H](N(C)C(=O)C(C)(C)N)CC1` [Example 254, 2-amino-N-((1s,4s)-4-(4-(3-cyano-4-((3-fluoropyridin-2-yl)thio)pyrazolo[1,5-a]pyridin-6-yl)-5-methyl-1H-pyrazol-1-y)cyclohexyl)-N,2-dimethylpropanamide] has an IC50 of 1 nM. `CN[C@H]1CC[C@@H](n2ncc(-c3cc(Sc4ccc(F)cc4C#N)c4c(C#N)cnn4c3)c2C)CC1` [Example 255, 4-((2-cyano-4-fluorophenyl)thio)-6-(5-methyl-1-((1s,4s)-4-(methylamino)cyclohexyl)-1H-pyrazol-4-yl)pyrazolo[1,5-a]pyridine-3-carbonitrile] showed an IC50 of 0.3 nM. `CCN(C)[C@H]1CC[C@@H](n2ncc(-c3cc(Sc4ccccc4C#N)c4c(C#N)cnn4c3)c2C)CC1` [Example 256, 4-((2-cyanophenyl)thio)-6-(1-((1s,4s)-4-(ethyl(methyl)amino)cyclo-hexyl)-5-methyl-1H-pyrazol-4-yl)pyrazolo[1,5-a]pyridine-3-carbonitrile] was tested, and the IC50 was 1 nM. Molecule `Cc1c(-c2cc(Sc3ccccc3C#N)c3c(C#N)cnn3c2)cnn1[C@H]1CC[C@@H](NCC2(C)CC2)CC1` [Example 257, 4-((2-cyanophenyl)thio)-6-(5-methyl-1-((1s,4s)-4-(((1-methylcyclopropyl)methyl)amino)cyclohexyl)-1H-pyrazol-4-yl)pyrazolo[1,5-a]pyridine-3-carbonitrile] has an IC50 of 0.5 nM. With `N#Cc1ccccc1Sc1cc(-c2cnn(CC(F)(F)F)c2)cn2ncc(C#N)c12` [Example 258] the IC50 was 2 nM. Molecule `CC(=O)N1C[C@H]2C[C@@H](n3ncc(-c4cc(Sc5ncccc5F)c5c(C#N)cnn5c4)c3C)C[C@H]2C1` [Example 259, 6-(1-((3aR,5r,6aS)-2-acetyloctahydrocyclopenta [c]pyrrol-5-yl)-5-methyl-1H-pyrazol-4-yl)-4-((3-fluoropyridin-2-yl)thio)pyrazolo[1,5-a]pyridine-3-carbonitrile] has an IC50 of 1.5 nM. For `Cc1c(-c2cc(Sc3ccccc3C#N)c3c(C#N)cnn3c2)cnn1[C@H]1CC[C@@](C)(O)CC1` [Example 260, 4-(2-cyanophenyl)sulfanyl-6-[1-(4-hydroxy-4-methyl-cyclohexyl)-5-methyl-pyrazol-4-yl]pyrazolo[1,5-a]pyridine-3-carbonitrile], the IC50 was 1 nM. For `Cc1c(-c2cc(Sc3ccccc3C#N)c3c(C#N)cnn3c2)cnn1[C@H]1CC[C@](C)(O)CC1` [Example 261, 4-((2-cyanophenyl)thio)-6-(1-((1r,4r)-4-hydroxy-4-methylcyclohexyl)-5-methyl-1H-pyrazol-4-yl)pyrazolo[1,5-a]pyridine-3-carbonitrile], the IC50 was 0.5 nM. With `CC(=O)N1[C@@H]2CC[C@H]1C[C@@H](n1ncc(-c3cc(Sc4ncccc4F)c4c(C#N)cnn4c3)c1C)C2` [Example 262, 6-(1-((1R,3r,5S)-8-acetyl-8-azabicyclo[3.2.1]octan-3-yl)-5-methyl-1H-pyrazol-4-yl)-4-((3-fluoropyridin-2-yl)thio)pyrazolo[1,5-a]pyridine-3-carbonitrile] the IC50 was 3 nM. For `CC(=O)N1[C@@H]2CC[C@H]1C[C@H](n1ncc(-c3cc(Sc4ncccc4F)c4c(C#N)cnn4c3)c1C)C2` [Example 263, 6-(1-((1R,3s,5S)-8-acetyl-8-azabicyclo[3.2.1]octan-3-yl)-5-methyl-1H-pyrazol-4-yl)-4-((3-fluoropyridin-2-yl)thio)pyrazolo[1,5-a]pyridine-3-carbonitrile], the IC50 was 3 nM. `Cc1c(-c2cc(Sc3ccccc3C#N)c3c(C#N)cnn3c2)cnn1[C@H]1C[C@H]2CC[C@@H](C1)N2C` [Example 264, 4-((2-cyanophenyl)thio)-6-(5-methyl-1-((1R,3r,5S)-8-methyl-8-azabicyclo[3.2.1]octan-3-yl)-1H-pyrazol-4-yl)pyrazolo[1,5-a]pyridine-3-carbonitrile] gave an IC50 of 1 nM. Molecule `Cc1c(-c2cc(Sc3ccccc3C#N)c3c(C#N)cnn3c2)cnn1[C@@H]1C[C@H]2CC[C@@H](C1)N2C` [Example 265, 4-((2-cyanophenyl)thio)-6-(5-methyl-1-((1R,3s,5S)-8-methyl-8-azabicyclo[3.2.1]octan-3-yl)-1H-pyrazol-4-yl)pyrazolo[1,5-a]pyridine-3-carbonitrile] has an IC50 of 0.4 nM. `Cc1c(-c2cc(Sc3ccccc3C#N)c3c(C#N)cnn3c2)cnn1C1CCN(CC(=O)N(C)C)CC1` [Example 266, 2-(4-(4-(3-cyano-4-((2-cyanophenyl)thio)pyrazolo [1,5-a]pyridin-6-yl)-5-methyl-1H-pyrazol-1-yl)piperidin-1-yl)-N,N-dimethylacetamide] was tested, and the IC50 was 0.5 nM. `Cc1c(-c2cc(Sc3ccccc3C#N)c3c(C#N)cnn3c2)cnn1C1CCN(Cc2ccccn2)CC1` [Example 267, 4-((2-cyanophenyl)thio)-6-(5-methyl-1-(1-(pyridin-2-ylmethyl)piperidin-4-yl)-1H-pyrazol-4-yl)pyrazolo[1,5-a]pyridine-3-carbonitrile] gave an IC50 of 0.6 nM. For `Cc1c(-c2cc(Sc3ccccc3C#N)c3c(C#N)cnn3c2)cnn1[C@H]1CC[C@@H](NC(=O)C(C)(C)O)CC1` [Example 268, N-((1s,4s)-4-(4-(3-cyano-4-((2-cyanophenyl)thio)pyrazolo [1,5-a]pyridin-6-yl)-5-methyl-1H-pyrazol-1-yl)cyclohexyl)-2-hydroxy-2-methylpropanamide], the IC50 was 0.4 nM. Molecule `Cc1c(-c2cc(Sc3ncccc3F)c3c(C#N)cnn3c2)cnn1[C@H]1CC[C@@H](NCC(=O)N(C)C)CC1` [Example 269, 2-(((1s,4s)-4-(4-(3-cyano-4-((3-fluoropyridin-2-yl)thio)pyrazolo[1,5-a]pyridin-6-yl)-5-methyl-1H-pyrazol-1-yl)cyclohexyl)amino)-N,N-dimethylacetamide] has an IC50 of 1 nM. For `Cc1c(-c2cc(Sc3ncccc3F)c3c(C#N)cnn3c2)cnn1[C@H]1CC[C@@H](NCc2ccccn2)CC1` [Example 270, 4-((3-fluoropyridin-2-yl)thio)-6-(5-methyl-1-((1s,4s)-4-((pyridin-2-ylmethyl)amino)cyclohex-yl)-1H-pyrazol-4-yl)pyrazolo[1,5-a]pyridine-3-carbonitrile], the IC50 was 0.7 nM. `Cc1c(-c2cc(Sc3ncccc3F)c3c(C#N)cnn3c2)cnn1[C@H]1CC[C@@H](NC(=O)C(C)(C)O)CC1` [Example 271, N-((1s,4s)-4-(4-(3-cyano-4-((3-fluoropyridin-2-yl)thio)pyrazolo[1,5-a]pyridin-6-yl)-5-methyl-1H-pyrazol-1-yl)cyclohexyl)-2-hydroxy-2-methylpropanamide] showed an IC50 of 1 nM. `CC(=O)N[C@H]1CC[C@H](n2ncc(-c3cc(Sc4ccccc4C#N)c4c(C#N)cnn4c3)c2C)CC1` [Example 272, N-((1r,4r)-4-(4-(3-cyano-4-((2-cyanophenyl)thio)pyrazolo [1,5-a]pyridin-6-yl)-5-methyl-1H-pyrazol-1-yl)cyclohexyl)acetamide] gave an IC50 of 1 nM. In the case of `CC(=O)N[C@H]1CC[C@@H](n2ncc(-c3cc(Sc4ccccc4C#N)c4c(C#N)cnn4c3)c2C)CC1` [Example 273, N-((1s,4s)-4-(4-(3-cyano-4-((2-cyanophenyl)thio)pyrazolo [1,5-a]pyridin-6-yl)-5-methyl-1H-pyrazol-1-yl)cyclohexyl)acetamide], the IC50 is reported as 0.5 nM. Work on `CC(=O)N[C@H]1CC[C@H](n2ncc(-c3cc(Sc4ccc(F)cc4C#N)c4c(C#N)cnn4c3)c2C)CC1` [Example 274, N-((1r,4r)-4-(4-(3-cyano-4-((2-cyano-4-fluorophenyl)thio)pyrazolo [1,5-a]pyridin-6-yl)-5-methyl-1H-pyrazol-1-yl)cyclohexyl)acetamide] yielded an IC50 of 1 nM. In the case of `Cc1c(-c2cc(Sc3ccc(F)cc3C#N)c3c(C#N)cnn3c2)cnn1[C@H]1CC[C@H](O)CC1` [Example 275, 4-(2-cyano-4-fluoro-phenyl)sulfanyl-6-[1-(4-hydroxycyclohexyl)-5-methyl-pyrazol-4-yl]pyrazolo[1,5-a]pyridine-3-carbonitrile], the IC50 is reported as 1 nM. With `Cc1c(-c2cc(Sc3ncccc3F)c3c(C#N)cnn3c2)cnn1[C@H]1CCNC[C@@H]1O` [Example 276, 4-[(3-fluoro-2-pyridyl)sulfanyl]-6-[1-[(3S,4S)-3-hydroxy-4-piperidyl]-5-methylpyrazol-4-yl]pyrazolo[1,5-a]pyridine-3-carbonitrile] the IC50 was 3 nM. Work on `Cc1c(-c2cc(Sc3ncccc3F)c3c(C#N)cnn3c2)cnn1[C@@H]1CCNC[C@H]1O` [Example 277, 4-((3-fluoropyridin-2-yl)thio)-6-(1-((3R,4R)-3-hydroxypiperidin-4-yl)-5-methyl-1H-pyrazol-4-yl)pyrazolo[1,5-a]pyridine-3-carbonitrile] yielded an IC50 of 15 nM. With `CC(=O)N1CCO[C@@H](Cn2ncc(-c3cc(Sc4ccccc4C#N)c4c(C#N)cnn4c3)c2C)C1` [Example 278, (R)-6-(1-((4-acetylmorpholin-2-yl)methyl)-5-methyl-1H-pyrazol-4-yl)-4-((2-cyanophenyl)thio)pyrazolo [1,5-a]pyridine-3-carbonitrile] the IC50 was 4 nM. Work on `CC(=O)N1CCO[C@H](Cn2ncc(-c3cc(Sc4ccccc4C#N)c4c(C#N)cnn4c3)c2C)C1` [Example 279, (S)-6-(1-((4-acetylmorpholin-2-yl)methyl)-5-methyl-1H-pyrazol-4-yl)-4-((2-cyanophenyl)thio)pyrazolo [1,5-a]pyridine-3-carbonitrile] yielded an IC50 of 3 nM. In the case of `CC(=O)N1CCO[C@@H](Cn2ncc(-c3cc(Sc4ncccc4F)c4c(C#N)cnn4c3)c2C)C1` [Example 280, (R)-6-(1-((4-acetylmorpholin-2-yl)methyl)-5-methyl-1H-pyrazol-4-yl)-4-((3-fluoropyridin-2-yl)thio)pyrazolo[1,5-a]pyridine-3-carbonitrile], the IC50 is reported as 12 nM. `Cc1c(-c2cc(Sc3ncccc3F)c3c(C#N)cnn3c2)cnn1[C@H]1CC[C@@H](CO)CC1` [Example 281, 4-((3-fluoropyridin-2-yl)thio)-6-(1-((1s,4s)-4-(hydroxymethyl)cyclohex-yl)-5-methyl-1H-pyrazol-4-yl)pyrazolo[1,5-a]pyridine-3-carbonitril] was tested, and the IC50 was 2 nM. For `Cc1c(-c2cc(Sc3ncccc3F)c3c(C#N)cnn3c2)cnn1[C@H]1CC[C@@](C)(N)CC1` [Example 282, 6-(1-((1s,4s)-4-amino-4-methylcyclohexyl)-5-methyl-1H-pyrazol-4-yl)-4-((3-fluoropyridin-2-yl)thio)pyrazolo[1,5-a]pyridine-3-carbonitrile], the IC50 was 1 nM.
